Target: T1, hPR (Homo sapiens, UniProt P06401)
T1 sequence (P06401 1-933): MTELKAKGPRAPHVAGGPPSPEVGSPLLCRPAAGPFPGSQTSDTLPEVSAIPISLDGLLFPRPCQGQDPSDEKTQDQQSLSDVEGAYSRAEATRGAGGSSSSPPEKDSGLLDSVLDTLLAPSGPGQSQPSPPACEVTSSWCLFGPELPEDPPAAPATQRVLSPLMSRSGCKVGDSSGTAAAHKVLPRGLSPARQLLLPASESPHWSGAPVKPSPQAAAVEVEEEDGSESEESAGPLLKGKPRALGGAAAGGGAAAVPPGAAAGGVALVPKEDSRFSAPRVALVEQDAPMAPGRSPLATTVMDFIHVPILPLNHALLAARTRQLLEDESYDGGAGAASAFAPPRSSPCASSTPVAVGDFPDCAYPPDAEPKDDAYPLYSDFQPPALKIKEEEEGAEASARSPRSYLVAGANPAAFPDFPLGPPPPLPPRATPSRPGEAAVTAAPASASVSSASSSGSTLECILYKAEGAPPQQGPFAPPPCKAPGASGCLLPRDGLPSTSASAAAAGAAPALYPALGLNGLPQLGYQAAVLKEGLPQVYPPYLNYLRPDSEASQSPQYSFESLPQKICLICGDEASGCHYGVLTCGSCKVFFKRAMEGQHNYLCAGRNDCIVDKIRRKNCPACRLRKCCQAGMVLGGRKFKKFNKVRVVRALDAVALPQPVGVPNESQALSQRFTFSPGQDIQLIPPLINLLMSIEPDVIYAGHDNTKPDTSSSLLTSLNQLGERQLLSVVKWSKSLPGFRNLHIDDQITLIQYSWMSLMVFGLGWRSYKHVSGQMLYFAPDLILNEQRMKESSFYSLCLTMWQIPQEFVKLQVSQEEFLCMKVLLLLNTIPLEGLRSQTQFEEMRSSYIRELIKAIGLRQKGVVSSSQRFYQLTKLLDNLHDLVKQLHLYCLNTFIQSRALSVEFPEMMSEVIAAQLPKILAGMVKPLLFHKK
Assay: hPR cotransfection assay in CV-1 cells, agonist mode
Assay type: cell-based
Conditions: Tables 3 and 4, values without footnote; read-out: hPR agonist potencies (EC50 in nM) in the cotransfection assay
Description: Antagonist efficacy was determined as a function (%) of maximal inhibition of a reference agonist at EC50 concentration. All the cotransfection experiments were carried out in 96-well plates by automation (Beckman Biomomek automated workstation).

CC1=CC(C)(C)Nc2ccc3c(c21)/C(=C/c1ccccc1F)Oc1ccc(Cl)cc1-3 [Formula II X=9-Cl 2-F-Ph, reference compound]
EC50: 26.5 nM

CC1=CC(C)(C)Nc2ccc3c(c21)/C(=C/c1cc(F)ccc1C)Oc1ccc(Cl)cc1-3 [Formula II X=9-Cl 2-Me-5-F-Ph, reference compound]
EC50: 2.1 nM

CC1=CC(C)(C)Nc2ccc3c(c21)/C(=C/c1ccccc1C)Oc1ccc(Cl)cc1-3 [Formula II X=9-Cl 2-Me-Ph, reference compound]
EC50: 8.5 nM

CC1=CC(C)(C)Nc2ccc3c(c21)/C(=C/c1cccc(F)c1)Oc1ccc(Cl)cc1-3 [Formula II X=9-Cl 3-F-Ph, reference compound]
EC50: 11.6 nM

CC1=CC(C)(C)Nc2ccc3c(c21)/C(=C/c1ccccc1)Oc1ccc(Cl)cc1-3 [Formula II X=9-Cl Phenyl, reference compound]
EC50: 6.24 nM

CC1=CC(C)(C)Nc2ccc3c(c21)/C(=C/c1cc(F)ccc1F)Oc1ccc(F)cc1-3 [Formula II X=9-F 2,5-diF-Ph, reference compound]
EC50: 3 nM

CC1=CC(C)(C)Nc2ccc3c(c21)/C(=C/c1ccccc1Cl)Oc1ccc(F)cc1-3 [Formula II X=9-F 2-Cl-Ph, reference compound]
EC50: 12 nM

CC1=CC(C)(C)Nc2ccc3c(c21)/C(=C/c1ccccc1F)Oc1ccc(F)cc1-3 [Formula II X=9-F 2-F-Ph, reference compound]
EC50: 7.3 nM

CC1=CC(C)(C)Nc2ccc3c(c21)/C(=C/c1cccc(F)c1C)Oc1ccc(F)cc1-3 [Formula II X=9-F 2-Me-3-F-Ph, reference compound]
EC50: 8.4 nM

CC1=CC(C)(C)Nc2ccc3c(c21)/C(=C/c1cc(F)ccc1C)Oc1ccc(F)cc1-3 [Formula II X=9-F 2-Me-5-F-Ph, reference compound]
EC50: 2.1 nM

COc1ccc(F)cc1/C=C1\Oc2ccc(F)cc2-c2ccc3c(c21)C(C)=CC(C)(C)N3 [Formula II X=9-F 2-MeO-5-F-Ph, reference compound]
EC50: 0.9 nM

COc1ccccc1/C=C1\Oc2ccc(F)cc2-c2ccc3c(c21)C(C)=CC(C)(C)N3 [Formula II X=9-F 2-MeO-Ph, reference compound]
EC50: 0.93 nM

CC1=CC(C)(C)Nc2ccc3c(c21)/C(=C/c1cccs1)Oc1ccc(F)cc1-3 [Formula II X=9-F 2-Thienyl, reference compound]
EC50: 18 nM

CC1=CC(C)(C)Nc2ccc3c(c21)/C(=C/c1ccncc1C)Oc1ccc(F)cc1-3 [Formula II X=9-F 3-Me-4-pyridinyl, reference compound]
EC50: 2 nM

CC1=CC(C)(C)Nc2ccc3c(c21)/C(=C/c1ccc(F)cc1)Oc1ccc(F)cc1-3 [Formula II X=9-F 4-F-Ph, reference compound]
EC50: 3.95 nM

CC1=CC(C)(C)Nc2ccc3c(c21)/C(=C/c1ccccc1)Oc1ccc(F)cc1-3 [Formula II X=9-F Phenyl, reference compound]
EC50: 5.25 nM

CC1=CC(C)(C)Nc2ccc3c(c21)/C(=C/c1cccc(F)c1)Oc1ccc(C)cc1-3 [Formula II X=9-Me 3-F-Ph, reference compound]
EC50: 7.95 nM

CC1=CC(C)(C)Nc2ccc3c(c21)/C(=C/c1cc(F)ccc1F)Oc1ccc(O)cc1-3 [Formula II X=9-OH 2,5-diF-Ph, reference compound]
EC50: 10 nM

CC1=CC(C)(C)Nc2ccc3c(c21)/C(=C/c1ccccc1C)Oc1ccc(O)cc1-3 [Formula II X=9-OH 2-Me-Ph, reference compound]
EC50: 9.3 nM

COc1ccc(F)cc1/C=C1\Oc2ccc(O)cc2-c2ccc3c(c21)C(C)=CC(C)(C)N3 [Formula II X=9-OH 2-MeO-5-F-Ph, reference compound]
EC50: 11.5 nM

CC1=CC(C)(C)Nc2ccc3c(c21)/C(=C/c1cccc(F)c1)Oc1ccc(O)cc1-3 [Formula II X=9-OH 3-F-Ph, reference compound]
EC50: 5.75 nM

CC1=CC(C)(C)Nc2ccc3c(c21)/C(=C/c1ccccc1)Oc1ccc(O)cc1-3 [Formula II X=9-OH Phenyl, reference compound]
EC50: 54.4 nM

From patent publication US7163946B2 (Ligand Pharmaceuticals Incorporated, priority 2002, dated 2007)
